What is called EC50 is the midpoint of the concentration-response curve. As usually defined, the EC90 is the point of the concentration-response curve where the effect stands at 90%. Read a high EC90 as a need for much substance. Broadly, the solubility is the dissolved amount per volume that the medium holds.

We go through 2 molecules from patent US11926642B2, “Compounds and methods for the treatment of COVID-19” (priority 2020, dated 2024).

Where “and” joins values, the source holds several entries; their conditions need not be identical. Identical values can stand only once. Like-named read-outs stand apart in the source and are kept apart here.

Data set [1] concerns SARS-CoV-2. As to the kind of experiment: Antiviral activity in A549-ACE2 cells, high content imaging of virus N protein. Type of data set: cell-based, USA-WA1/2020 SARS-CoV-2. As to conditions: Severe acute respiratory syndrome coronavirus 2, A549-ACE2.
Data set [2] concerns SARS-CoV-2. As to the kind of experiment: microbe, parasite or virus in culture. Type of data set: cell-based, Washington SARS-CoV-2.
In data set [3] the test system is SARS-CoV-2. Description: Antiviral activity in HeLa-ACE2 cells, high content imaging with convalescent sera. In kind it is cell-based, USA-WA1/2020 SARS-CoV-2. The following applies: Severe acute respiratory syndrome coronavirus 2, HeLa-ACE2, 24 h.
Data set [4] deals with HCoV-229E. Description: microbe, parasite or virus in culture. In kind it is cell-based.
Assay in data set [5]: not given
This is another data set of the same source.

The conditions of data set [6]: human.
Data set [7] deals with hERG (Homo sapiens, UniProt Q12809).
Data set [8] in a line: in vitro. The following applies: human.
Data set [9] is described as follows: physchem.

Chain of hERG (Q12809 whole entry): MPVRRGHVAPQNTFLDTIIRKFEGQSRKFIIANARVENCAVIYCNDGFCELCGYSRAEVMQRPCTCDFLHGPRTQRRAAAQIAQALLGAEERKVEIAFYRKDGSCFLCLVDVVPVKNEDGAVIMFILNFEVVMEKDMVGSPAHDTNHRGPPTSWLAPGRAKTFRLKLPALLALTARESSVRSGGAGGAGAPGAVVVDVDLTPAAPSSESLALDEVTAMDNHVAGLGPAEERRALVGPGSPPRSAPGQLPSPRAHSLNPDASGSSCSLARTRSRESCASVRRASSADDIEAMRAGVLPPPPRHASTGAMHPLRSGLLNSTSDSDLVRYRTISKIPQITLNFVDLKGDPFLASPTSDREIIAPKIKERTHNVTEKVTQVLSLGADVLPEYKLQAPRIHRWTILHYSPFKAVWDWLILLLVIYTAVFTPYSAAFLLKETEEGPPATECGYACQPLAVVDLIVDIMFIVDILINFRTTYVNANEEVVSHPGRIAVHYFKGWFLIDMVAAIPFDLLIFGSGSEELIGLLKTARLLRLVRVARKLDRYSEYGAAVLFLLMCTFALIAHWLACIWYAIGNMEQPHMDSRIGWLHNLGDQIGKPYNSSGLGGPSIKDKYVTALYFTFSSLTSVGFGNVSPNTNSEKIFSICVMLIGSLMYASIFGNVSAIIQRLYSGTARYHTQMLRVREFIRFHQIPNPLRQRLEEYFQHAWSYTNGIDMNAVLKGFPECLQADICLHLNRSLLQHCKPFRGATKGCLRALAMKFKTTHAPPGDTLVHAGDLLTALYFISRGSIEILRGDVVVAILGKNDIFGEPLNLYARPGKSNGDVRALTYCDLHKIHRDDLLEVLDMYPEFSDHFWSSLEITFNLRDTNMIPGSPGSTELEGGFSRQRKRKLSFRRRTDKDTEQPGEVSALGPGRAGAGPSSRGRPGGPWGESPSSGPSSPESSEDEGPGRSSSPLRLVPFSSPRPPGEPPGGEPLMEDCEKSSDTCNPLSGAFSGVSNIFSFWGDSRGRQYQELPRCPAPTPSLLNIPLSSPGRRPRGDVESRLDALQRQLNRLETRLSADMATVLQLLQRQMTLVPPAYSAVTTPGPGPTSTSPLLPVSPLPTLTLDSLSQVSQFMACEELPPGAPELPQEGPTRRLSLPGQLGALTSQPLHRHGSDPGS

As for `CCC(CC)COC(=O)[C@H](C)N[P@](=O)(OC[C@H]1O[C@@](C#N)(c2ccc3c(N)ncnn23)[C@H](O)[C@@H]1O)Oc1ccccc1` [remdesivir, reference compound], the concentration giving a half-maximal response (EC50) in data set [1] (24 hours post infection) worked out at 442 nM; in data set [1] (48 hours post infection), 238 nM; in [3], 73.9 nM. For the same molecule, the EC90 in [1] (24 hours post infection) was found to be 1190 nM; in [1] (48 hours post infection), 592 nM; in [3], 168 nM. Besides, the figures for the “fold reduction in virion replication” value in data set [2] (0.5 μM) and in [2] (10 μM) were 93.1 fold and 2590 fold, respectively.
As to `COc1cccc2[nH]c(C(=O)N[C@@H](CC(C)C)C(=O)N[C@@H](C[C@@H]3CCNC3=O)C(=O)COP(=O)(O)O)cc12` [Example 49], the EC50 in [4] (Human coronavirus 229E, MRC5, read-out: EC50 μM GeoMean (95% CI)) worked out at 0.074 µM; in [4] (read-out: EC50 μM GeoMean (95% CI)), 0.058 µM. The “Total Impurities (%)” value (pH 1.9) was 3.2% and 5.4% and 8.9%; the “Total Impurities (%)” value (pH 2.9) was 2.0% and 2.5% and 3.0%; the “Total Impurities (%)” value (pH 4.2) was 3.0% and 3.8% and 6.5%. Moreover, the “Increase in Total Impurities (%) - 4 days” value is 0.8% and 1.2% in data set [5] (pH 3); 1.4% and 1.5% and 1.6% in data set [5] (pH 4); 4.3% and 4.1% and 3.6% in data set [5] (pH 5). Also, in data set [6], the “projected unbound human Cmax” value came out at 170 nM. Moreover, the “hERG current amplitude: no inhibition at up to” value in data set [7] was 300 µM. In addition, the CC50 in [8] was > 100000 nM. For the same molecule, in data set [9], the solubility was > 200 mg/mL.
